Assay results: patent US20200237715A1, “COX-2 Inhibitors for the Treatment of Ocular Disease” (priority 2019, published 2020)
Several values for one entry are separate records, joined by “and”; a condition that tells them apart may be missing. Equal values may be shown once. Read-outs that look alike come from different tables or passages of the source. One block for each molecule: values may come before it.

Key:
[1] = topical nepafenac, Cmax, cited from earlier work
[2] = Dexamethasone periocular DEPOT (sub-Tenon injection), retina-choroid concentrations, literature comparison; format: in vivo; conditions: dexamethasone sub-Tenon DEPOT versus SD-8381 DEPOT
Experimental: For comparison, the concentrations in the retina-choroid for a DEPOT of a similar lipophilic small molecule, dexamethasone, when placed very close to the retina (sub-Tenon injection) were 0.31 and 0.93 μM [Huang Z, Yang W, Zong Y, Qiu S, Chen X, Sun X, Zhou Y, Xie Z, and Gao Q. A study of the dexamethasone sodium phosphate release properties from a periocular capsular drug delivery system. Drug Delivery 2016:23; 839-847]. […] Also, these dexamethasone data are for a situation where drug delivery has been optimized.

[3] = DEPOT sub-Tenon's sac, steady-state, cited from earlier work
[4] = Rabbit study: subconjunctival DEPOT of the ethyl ester of SD-8381 in sesame oil, drug concentration in ocular tissues and plasma by LC-MS; format: in vivo, DB rabbits
Experimental: All reagents were obtained from Sigma-Aldrich with the exception that sesame oil was obtained from Sawall, 2965 Oakland Dr, Kalamazoo, Mich. The ethyl ester of SD-8381 was formulated in sesame oil as a saturated solution at room temperature. Saturation was assured by warming under water warm to the touch for 10 minutes and noting that upon returning to room temperature the powder was in equilibrium with what was apparently a crystalline form of the drug in that the small amount of remaining drug was now transparent (for example, the compound had clearly dissolved and crystallized out of solution). The formulation was checked for topical instillation irritancy. Two male DB rabbits were sedated with isoflurane vapors to effect. Eyes were anesthetized with topical proparacaine, the area treated with ophthalmic betadine and rinsed with sterile saline. The test article was injected (0.05 mL) as a subconjunctival DEPOT to two male DB rabbits, OU using a 29 g needle.
The rabbits were sacrificed at a 6-days. Samples collected were (bilateral) aqueous humor, iris plus ciliary body, cornea, conjunctiva, sclera, choroid, retina, lens, vitreous humor and plasma which were placed in tared vials and stored at −20° C. prior to analysis. Care was taken to not cross contaminate fields by dissecting high concentration tissues as separately as possible from other tissues.
The free acid of SD-8381 was formed enzymatically using ethyl 6,8-dichloro-2-(trifluoromethyl)-2H-chromene-3-carboxylate and porcine esterase (all reagents and chemicals are from Sigma-Aldrich). The reaction was initiated by adding 5 mg of compound in methanol to 8 mg of esterase in 250 μL of 50 mM potassium phosphate pH 8 buffer. The reaction proceeded at 37° C. and was complete after 3 hours. Conversion of the […] to the free acid was monitored using HPLC-UV with 254 nm detection and confirmed by flow injection analysis using a Waters Quattro Micro mass spectrometer in negative ion mode at unit resolution. SD-8381 free acid was purified by HPLC fraction collection using a 4.6×250 mm Agilent Eclipse XDB-C18 column using 0.1% formic acid/H2O/acetonitrile mobiles phases. Fractions containing the free acid were dried in a weighed tube using a SpeedVac concentrator.
Free acid SD-8381 was reconstituted in methanol to establish w/v concentration standards for LC-MS analysis. Analytical standards were prepares using EDTA mouse plasma from BioVT. A dilution series of free acid SD-8381 in methanol were spiked into mouse plasma and each concentration was combined with 3 volumes of methanol containing 1 μM diclofenac as a surrogate internal standard as no stable-isotope labeled internal standard (SIL-IS) of SD-8381 is currently available. Standards and plasma blanks were vortex mixed and centrifuged at 13K×g for 5 minutes. Supernatant was transferred to glass insert vials and immediately analyzed by LC-MS analysis. Tissue samples were homogenized using a GE Healthcare sample grinding kit #80-6483-37 and 1 volume of DPBS containing 50% methanol. Proteins were precipitated using 2 additional volumes of methanol and vortex mixing for 5 minutes. Samples were centrifuged at 13K×g for 5 minutes. Supernatant was removed and dried in a SpeedVac concentrator under medium heat. Sample was reconstituted using methanol containing 1 uM Diclofenac. Samples were analyzed using a Waters nanoAcquity UPLC in-line with a high-resolution Waters Synapt G2-S mass spectrometer via an electrospray ion source. UPLC separation of used performed using a 0.375 mm×10 cm Waters XBridge C18 3.5 u column and a flow rate of 10 μL per minute. Mobile phases were 0.1% formic acid in water as mobile phase A and 0.1% formic acid in acetonitrile as mobile phase B. Gradient elution was accomplished with 1% B initial sample loading with ramping to 95% B at 3 minutes, holding at 95% B for 5 minutes, and returning to 1% B at 8.1 minutes. Total run time was 12 minutes and 5 μL of sample was injected per analysis. […]

Plasma protein binding = format: in vitro ADME
[5] = DEPOT, steady-state, 6 days, high value of the same subject dropped
[6] = SD-8381 free acid measured, subconjunctival DEPOT 0.05 mL OU of ethyl ester in sesame oil, rabbits sacrificed at 6 days

Structure (SMILES): Nc1c(CC(=O)O)cccc1C(=O)c1ccccc1 [Amfenac, 2-amino-3-benzoylbenzeneacetic acid]
Anterior choroid concentration [1]: (0.47) μM
Anterior retina concentration [1]: (0.011) μM
Posterior choroid concentration [1]: 0.042 µM
Posterior retina concentration [1]: 0.00077 µM
Anterior choroid concentration ([1]; listed as amfenac): 0.468 µM
Anterior retina concentration ([1]; listed as amfenac): 0.011 µM
Posterior choroid concentration ([1]; listed as amfenac): 0.0418 µM
Posterior retina concentration ([1]; listed as amfenac): 0.000765 µM

Retina-choroid concentration compared with SD-8381 [2]: almost two orders of magnitude less
Structure (SMILES): C[C@@H]1C[C@H]2[C@@H]3CCC4=CC(=O)C=C[C@]4(C)[C@@]3(F)[C@@H](O)C[C@]2(C)[C@@]1(O)C(=O)CO [Dexamethasone, dexamethasone]
Choroid concentration [3]: 0.92 µM
Retina concentration [3]: 0.31 µM
Choroid concentration ([3]; listed as dexamethasone): 0.93 µM

Structure (SMILES): NC(=O)Cc1cccc(C(=O)c2ccccc2)c1N [Nepafenac, 2-amino-3-benzoylbenzeneacetamide]
Anterior choroid concentration [1]: (0.71) μM
Anterior retina concentration [1]: (0.11) μM
Posterior choroid concentration [1]: 0.055 µM
Posterior retina concentration [1]: 0.0027 µM
Anterior choroid concentration ([1]; listed as nepafenac): 0.714 µM
Anterior retina concentration ([1]; listed as nepafenac): 0.110 µM
Posterior choroid concentration ([1]; listed as nepafenac): 0.0551 µM
Posterior retina concentration ([1]; listed as nepafenac): 0.00272 µM

Choroid concentration, mean (n = 4) ([4]; DEPOT, steady-state, 6 days): 96 (n = 4) μM
Retina concentration, mean (n = 4) ([4]; DEPOT, steady-state, 6 days): 13 (n = 4) μM
Choroid concentration, average with high value dropped (n = 3) [4, 5]: 20.9 μM and 21 (n = 3)* μM
Retina concentration, average with high value dropped (n = 3) [4, 5]: 5.17 μM and 5.2 (n = 3)* μM
Plasma concentration relative to ocular tissues (fold less) ([4]; plasma versus ocular tissues): 10^2-10^4
Binding to plasma proteins (Plasma protein binding): highly bound to plasma proteins
Structure (SMILES): O=C(O)C1=Cc2cc(Cl)cc(Cl)c2OC1C(F)(F)F (stereo not drawn) [SD-8381, 6.8-Dichloro-2-trifluoromethyl-2H-1-benzopyran-3-carboxylic acid]
Retina-choroid concentration at steady-state compared with nepafenac following topical administration ([4]; SD-8381 DEPOT versus literature nepafenac): approximately two orders of magnitude higher
Choroid concentration, individual values [4, 6]: 322 µM and 9.78 µM and 2.43 µM and 50.4 µM
Retina concentration, individual values [4, 6]: 36.8 µM and 2.01 µM and 9.14 µM and 4.37 µM

Structure (SMILES): CCOC(=O)C1=Cc2cc(Cl)cc(Cl)c2OC1C(F)(F)F (stereo not drawn) [ethyl ester of SD-8381, ethyl 6,8-dichloro-2-(trifluoromethyl)-2H-chromene-3-carboxylate]
Adverse events (excessive scratching, redness, other signs of irritation and pain) ([4]; subconjunctival DEPOT 0.05 mL OU, saturated solution in sesame oil, two male DB rabbits): No apparent adverse events
